Consider 43 sequences from the supplement of paper PMC11208160.

The data set can be described thus: recombinant barcode read abundance after kanamycin selection (control-corrected) (log10(CPM+1)); higher = more efficient recombination; sequences stand for … in AGTGCAGAGAAAATCGGCCAGTTTTCTCTGCCTGCAGTCCGCATGCCGT…ATTTATGCAGCGGACTGCCTTTCTCCCAAAGTGATAAACCGGACAGTATCATGGACCGGTTTTCCCGGTAATCCGTATTTGCAAGGTTGGTTTCACT; site = the 11-nt target. The gist of the method: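 Recombination efficiency comes from barcode counts at recombinant junctions, converted to counts per million, averaged and corrected against the control. Values appear as log10(CPM+1). They were obtained from a pooled E. coli screen in which each oligo paired a target with an IS621 bridge RNA target-binding loop, and cells were plated in duplicate on chloramphenicol/ampicillin LB agar or on chloramphenicol/ampicillin/kanamycin with 0.1 mM IPTG.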

On to “ATGCTTTCTTGGGTTCTAACCTGTTGCCTTT [ATGCTTTCTAG_LTGcore_CT_RTGcore_AA] (site ATGCTTTCTAG) (LTG core: CT, RTG core: AA)”, for which the “recombinant barcode read abundance (log10)” value worked out at 0.103. “ATGCTTTTCTGGGTTCTAACCTGTTGCCTAG [ATGCTTTCTAG_LTGcore_TC_RTGcore_CT] (site ATGCTTTCTAG) (LTG core: TC, RTG core: CT)”: the “recombinant barcode read abundance (log10)” value came out at 0.439.

“ATGCTTTTCTGGGTTCTAACCTGTTGCCTGA [ATGCTTTCTAG_LTGcore_TC_RTGcore_TC] (site ATGCTTTCTAG) (LTG core: TC, RTG core: TC)”: the “recombinant barcode read abundance (log10)” value was 0.187. For “ATGCTTTTTTGGGTTCTAACCTGTTGCCTAG [ATGCTTTCTAG_LTGcore_TT_RTGcore_CT] (site ATGCTTTCTAG) (LTG core: TT, RTG core: CT)” the value was 0.239; for “ATGTCCCAATGGGTTCTAACCTGTTGCTCAG [ATGTCCCCTGA_LTGcore_AA_RTGcore_CT] (site ATGTCCCCTGA) (LTG core: AA, RTG core: CT)”, 0.274. As for “ATGTCCCCTTGGGTTCTAACCTGTTGCTCAA [ATGTCCCCTGA_LTGcore_CT_RTGcore_TT] (site ATGTCCCCTGA) (LTG core: CT, RTG core: TT)”, the “recombinant barcode read abundance (log10)” value turned out to be 0.0803.

“ATGTCCCCTTGGGTTCTAACCTGTTGCTCAG [ATGTCCCCTGA_LTGcore_CT_RTGcore_CT] (site ATGTCCCCTGA) (LTG core: CT, RTG core: CT)”: the “recombinant barcode read abundance (log10)” value was determined as 1.46.

On to “ATGTCCCCTTGGGTTCTAACCTGTTGCTCCC [ATGTCCCCTGA_LTGcore_CT_RTGcore_GG] (site ATGTCCCCTGA) (LTG core: CT, RTG core: GG)”, for which the “recombinant barcode read abundance (log10)” value worked out at 0.175. As to “ATGTCCCCTTGGGTTCTAACCTGTTGCTCGA [ATGTCCCCTGA_LTGcore_CT_RTGcore_TC] (site ATGTCCCCTGA) (LTG core: CT, RTG core: TC)”, the “recombinant barcode read abundance (log10)” value is 0.0646. Consider “ATGTCCCCTTGGGTTCTAACCTGTTGCTCTT [ATGTCCCCTGA_LTGcore_CT_RTGcore_AA] (site ATGTCCCCTGA) (LTG core: CT, RTG core: AA)”, for which the “recombinant barcode read abundance (log10)” value came out at 0.0454. In the case of “ATGTCCCGATGGGTTCTAACCTGTTGCTCTC [ATGTCCCCTGA_LTGcore_GA_RTGcore_GA] (site ATGTCCCCTGA) (LTG core: GA, RTG core: GA)”, the “recombinant barcode read abundance (log10)” value is 0.0444. With “CATATTACGTGGGTTCTAACCTGTTGCCTAG [CATATTACTAG_LTGcore_CG_RTGcore_CT] (site CATATTACTAG) (LTG core: CG, RTG core: CT)”, the “recombinant barcode read abundance (log10)” value was found to be 0.0547. With “CATATTACTTGGGTTCTAACCTGTTGCCTAA [CATATTACTAG_LTGcore_CT_RTGcore_TT] (site CATATTACTAG) (LTG core: CT, RTG core: TT)”, the “recombinant barcode read abundance (log10)” value turned out to be 0.105.

Take “CATATTACTTGGGTTCTAACCTGTTGCCTCA [CATATTACTAG_LTGcore_CT_RTGcore_TG] (site CATATTACTAG) (LTG core: CT, RTG core: TG)”: the “recombinant barcode read abundance (log10)” value came to 0.0517. In the case of “CATATTACTTGGGTTCTAACCTGTTGCCTCT [CATATTACTAG_LTGcore_CT_RTGcore_AG] (site CATATTACTAG) (LTG core: CT, RTG core: AG)”, the “recombinant barcode read abundance (log10)” value is 0.0539.

For “CATATTACTTGGGTTCTAACCTGTTGCCTTC [CATATTACTAG_LTGcore_CT_RTGcore_GA] (site CATATTACTAG) (LTG core: CT, RTG core: GA)”, the “recombinant barcode read abundance (log10)” value amounted to 0.084. In the case of “CATATTACTTGGGTTCTAACCTGTTGCCTTT [CATATTACTAG_LTGcore_CT_RTGcore_AA] (site CATATTACTAG) (LTG core: CT, RTG core: AA)”, the “recombinant barcode read abundance (log10)” value is 0.0756. Take “CATATTAGGTGGGTTCTAACCTGTTGCCTCC [CATATTACTAG_LTGcore_GG_RTGcore_GG] (site CATATTACTAG) (LTG core: GG, RTG core: GG)”: the “recombinant barcode read abundance (log10)” value came out at 0.117. In the case of “CATATTATATGGGTTCTAACCTGTTGCCTAG [CATATTACTAG_LTGcore_TA_RTGcore_CT] (site CATATTACTAG) (LTG core: TA, RTG core: CT)”, the “recombinant barcode read abundance (log10)” value was determined as 0.0615. Regarding “CATATTATCTGGGTTCTAACCTGTTGCCTAG [CATATTACTAG_LTGcore_TC_RTGcore_CT] (site CATATTACTAG) (LTG core: TC, RTG core: CT)”, the “recombinant barcode read abundance (log10)” value was 0.127.

Turning to “CATATTATTTGGGTTCTAACCTGTTGCCTAA [CATATTACTAG_LTGcore_TT_RTGcore_TT] (site CATATTACTAG) (LTG core: TT, RTG core: TT)”, the “recombinant barcode read abundance (log10)” value turned out to be 0.0172. For the sequence “CATATTATTTGGGTTCTAACCTGTTGCCTAG [CATATTACTAG_LTGcore_TT_RTGcore_CT] (site CATATTACTAG) (LTG core: TT, RTG core: CT)”, the “recombinant barcode read abundance (log10)” value worked out at 0.

For the sequence “CGAGCCCAGTGGGTTCTAACCTGTTGCTGCT [CGAGCCCCTCA_LTGcore_AG_RTGcore_AG] (site CGAGCCCCTCA) (LTG core: AG, RTG core: AG)”, the “recombinant barcode read abundance (log10)” value is 0.189.

Take “CGAGCCCATTGGGTTCTAACCTGTTGCTGAG [CGAGCCCCTCA_LTGcore_AT_RTGcore_CT] (site CGAGCCCCTCA) (LTG core: AT, RTG core: CT)”: the “recombinant barcode read abundance (log10)” value worked out at 0.104.

For the sequence “CGAGCCCCCTGGGTTCTAACCTGTTGCTGGG [CGAGCCCCTCA_LTGcore_CC_RTGcore_CC] (site CGAGCCCCTCA) (LTG core: CC, RTG core: CC)”, the “recombinant barcode read abundance (log10)” value was determined as 0.0674. Take “CGAGCCCCTTGGGTTCTAACCTGTTGCTGTA [CGAGCCCCTCA_LTGcore_CT_RTGcore_TA] (site CGAGCCCCTCA) (LTG core: CT, RTG core: TA)”: the “recombinant barcode read abundance (log10)” value stood at 0.68.

On to “CGAGCCCGATGGGTTCTAACCTGTTGCTGAG [CGAGCCCCTCA_LTGcore_GA_RTGcore_CT] (site CGAGCCCCTCA) (LTG core: GA, RTG core: CT)”, for which the “recombinant barcode read abundance (log10)” value was 0.157. Regarding “CGAGCCCGGTGGGTTCTAACCTGTTGCTGCC [CGAGCCCCTCA_LTGcore_GG_RTGcore_GG] (site CGAGCCCCTCA) (LTG core: GG, RTG core: GG)”, the “recombinant barcode read abundance (log10)” value was determined as 0.18.

As to “CGAGCCCTATGGGTTCTAACCTGTTGCTGAG [CGAGCCCCTCA_LTGcore_TA_RTGcore_CT] (site CGAGCCCCTCA) (LTG core: TA, RTG core: CT)”, the “recombinant barcode read abundance (log10)” value stood at 0.312. For “CGAGCCCTCTGGGTTCTAACCTGTTGCTGGA [CGAGCCCCTCA_LTGcore_TC_RTGcore_TC] (site CGAGCCCCTCA) (LTG core: TC, RTG core: TC)”, the “recombinant barcode read abundance (log10)” value is 0.139. In the case of “CGCGCCCAGTGGGTTCTAACCTGTTGCGGAG [CGCGCCCCTCC_LTGcore_AG_RTGcore_CT] (site CGCGCCCCTCC) (LTG core: AG, RTG core: CT)”, the “recombinant barcode read abundance (log10)” value came out at 0.0753.

As for “CGCGCCCATTGGGTTCTAACCTGTTGCGGAT [CGCGCCCCTCC_LTGcore_AT_RTGcore_AT] (site CGCGCCCCTCC) (LTG core: AT, RTG core: AT)”, the “recombinant barcode read abundance (log10)” value came to 0.0457. Take “CGCGCCCCTTGGGTTCTAACCTGTTGCGGTC [CGCGCCCCTCC_LTGcore_CT_RTGcore_GA] (site CGCGCCCCTCC) (LTG core: CT, RTG core: GA)”: the “recombinant barcode read abundance (log10)” value amounted to 0.041. In the case of “CGCGCCCGCTGGGTTCTAACCTGTTGCGGAG [CGCGCCCCTCC_LTGcore_GC_RTGcore_CT] (site CGCGCCCCTCC) (LTG core: GC, RTG core: CT)” it was 0.198.

For “CGCGCCCGTTGGGTTCTAACCTGTTGCGGAC [CGCGCCCCTCC_LTGcore_GT_RTGcore_GT] (site CGCGCCCCTCC) (LTG core: GT, RTG core: GT)”, the “recombinant barcode read abundance (log10)” value came to 0.421. “CGCGCCCTCTGGGTTCTAACCTGTTGCGGAG [CGCGCCCCTCC_LTGcore_TC_RTGcore_CT] (site CGCGCCCCTCC) (LTG core: TC, RTG core: CT)”: the “recombinant barcode read abundance (log10)” value turned out to be 0.264.

As for “CGCGCCCTCTGGGTTCTAACCTGTTGCGGGA [CGCGCCCCTCC_LTGcore_TC_RTGcore_TC] (site CGCGCCCCTCC) (LTG core: TC, RTG core: TC)”, the “recombinant barcode read abundance (log10)” value worked out at 0.307. On to “CGCGCCCTGTGGGTTCTAACCTGTTGCGGCA [CGCGCCCCTCC_LTGcore_TG_RTGcore_TG] (site CGCGCCCCTCC) (LTG core: TG, RTG core: TG)”, for which the “recombinant barcode read abundance (log10)” value is 0.0883. With “CGCGCCCTTTGGGTTCTAACCTGTTGCGGAA [CGCGCCCCTCC_LTGcore_TT_RTGcore_TT] (site CGCGCCCCTCC) (LTG core: TT, RTG core: TT)”, the “recombinant barcode read abundance (log10)” value came to 0.156. Turning to “CGGTCCCAGTGGGTTCTAACCTGTTGCCACT [CGGTCCCCTTG_LTGcore_AG_RTGcore_AG] (site CGGTCCCCTTG) (LTG core: AG, RTG core: AG)”, the “recombinant barcode read abundance (log10)” value was found to be 0.258.

“CGGTCCCCTTGGGTTCTAACCTGTTGCCAAC [CGGTCCCCTTG_LTGcore_CT_RTGcore_GT] (site CGGTCCCCTTG) (LTG core: CT, RTG core: GT)”: the “recombinant barcode read abundance (log10)” value came to 0.0684. On to “CGGTCCCCTTGGGTTCTAACCTGTTGCCAAT [CGGTCCCCTTG_LTGcore_CT_RTGcore_AT] (site CGGTCCCCTTG) (LTG core: CT, RTG core: AT)”, for which the “recombinant barcode read abundance (log10)” value was 0.133. As for “CGGTCCCCTTGGGTTCTAACCTGTTGCCACT [CGGTCCCCTTG_LTGcore_CT_RTGcore_AG] (site CGGTCCCCTTG) (LTG core: CT, RTG core: AG)”, the “recombinant barcode read abundance (log10)” value worked out at 0.0728.
